Columns and labels:
Bile acid receptor [1] = target: T1, Bile acid receptor (Homo sapiens, UniProt Q96RI1); assay: Agonist activity at FXR (unknown origin) assessed as ligand-mediated interaction of the SRC1 peptide with protein LBD by FRET assay
T1 sequence (Q96RI1 whole entry): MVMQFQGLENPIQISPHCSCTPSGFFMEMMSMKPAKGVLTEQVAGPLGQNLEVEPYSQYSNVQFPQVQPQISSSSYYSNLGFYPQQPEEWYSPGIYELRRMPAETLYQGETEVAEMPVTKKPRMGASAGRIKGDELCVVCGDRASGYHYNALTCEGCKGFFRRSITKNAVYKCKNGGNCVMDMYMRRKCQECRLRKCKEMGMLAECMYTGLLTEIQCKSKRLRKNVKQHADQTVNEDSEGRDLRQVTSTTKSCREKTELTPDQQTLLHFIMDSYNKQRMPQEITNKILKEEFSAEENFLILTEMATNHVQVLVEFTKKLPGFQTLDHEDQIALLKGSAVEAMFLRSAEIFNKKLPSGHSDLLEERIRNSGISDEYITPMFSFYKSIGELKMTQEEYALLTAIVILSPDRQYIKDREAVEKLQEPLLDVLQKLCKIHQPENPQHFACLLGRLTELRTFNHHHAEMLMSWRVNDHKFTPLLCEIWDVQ

Bile acid receptor [2] = target: T1, Bile acid receptor; assay: Agonist activity at FXR (unknown origin) transfected into african green monkey CV1 cells assessed as ligand-mediated transcription by luciferase reporter/ transient transfection assay; assay type: cell-based, CV-1
[3] = target: T2, Bile acid receptor (Homo sapiens) (UniProt Q96RI1); assay: Agonist activity at FXR (unknown origin) assessed as ligand-mediated interaction of the SRC1 peptide with protein LBD by FRET assay relative to GW4064
T2 sequence (whole entry): T1 sequence (Q96RI1 whole entry)

[4] = target: T2, Bile acid receptor (Homo sapiens); assay: Agonist activity at FXR (unknown origin) transfected into african green monkey CV1 cells assessed as ligand-mediated transcription by luciferase reporter/ transient transfection assay relative to GW4064; assay type: cell-based; details: CV-1

CC(C)c1occ(COc2c(Cl)cccc2Cl)c1COc1ccc(/C=C/c2cccc(C(=O)O)c2)c(Cl)c1
EC50 (Bile acid receptor [1]): 1230 nM
EC50 (Bile acid receptor [2]; cv-1): < 10000 nM
Emax [3]: 51%

CC(C)c1nnn(-c2c(Cl)cccc2Cl)c1COc1ccc(/C=C/c2cccc(C(=O)O)c2)c(Cl)c1
Emax [4]: 125%
EC50 (Bile acid receptor [1]): 112 nM
EC50 (Bile acid receptor [2]): 35 nM
Emax [3]: 106%

CC(C)c1cnn(-c2c(Cl)cccc2Cl)c1COc1ccc(/C=C/c2cccc(C(=O)O)c2)c(Cl)c1
Emax [4]: 100%
EC50 (Bile acid receptor [1]): 42 nM
EC50 (Bile acid receptor [2]): 20 nM
Emax [3]: 105%

CC(C)n1cnc(COc2c(Cl)cccc2Cl)c1COc1ccc(/C=C/c2cccc(C(=O)O)c2)c(Cl)c1
Emax [4]: 62%
EC50 (Bile acid receptor [1]): 309 nM
EC50 (Bile acid receptor [2]): 562 nM
Emax [3]: 88%

CC(C)n1nnc(-c2c(Cl)cccc2Cl)c1COc1ccc(/C=C/c2cccc(C(=O)O)c2)c(Cl)c1
Emax [4]: 47%
EC50 (Bile acid receptor [1]): 123 nM
EC50 (Bile acid receptor [2]): 145 nM
Emax [3]: 80%

CC(C)c1ncn(CCc2c(Cl)cccc2Cl)c1COc1ccc(/C=C/c2cccc(C(=O)O)c2)c(Cl)c1
Emax [4]: 35%
EC50 (Bile acid receptor [1]): 617 nM
EC50 (Bile acid receptor [2]): 676 nM
Emax [3]: 49%

CC(C)c1oc(=O)n(CCc2c(Cl)cccc2Cl)c1COc1ccc(/C=C/c2cccc(C(=O)O)c2)c(Cl)c1
Emax [4]: 82%
EC50 (Bile acid receptor [1]): 66 nM
EC50 (Bile acid receptor [2]): 35 nM
Emax [3]: 99%

CC(C)c1oc(=O)n(Cc2c(Cl)cccc2Cl)c1COc1ccc(/C=C/c2cccc(C(=O)O)c2)c(Cl)c1
Emax [4]: 104%
EC50 (Bile acid receptor [1]): 110 nM
EC50 (Bile acid receptor [2]): 54 nM
Emax [3]: 90%

— ChEMBL document CHEMBL3352747, “Novel heterocyclic scaffolds of GW4064 as farnesoid X receptor agonists” (Bioorg Med Chem Lett, 2015)
